Data as given in patent publication US20260335388A1, “COMBINATION THERAPIES WITH ONCOLYTIC ADENOVIRUS AND TOPOISOMERASE I INHIBITORS OR PRODRUGS THEREOF” (priority 2022, published 2026).
pIC50: −log10 of the molar value. Like-named read-outs stand apart in the source and are kept apart here.

Tests used:
[1] = system: E1a; assay: Immunoblot of E1a / E2F-1 in VCN-01-infected Y79 cells with further chemotherapeutics; assay type: cell-based; conditions: for expression of VCN-01 proteins (E1a): VCN-01 50 MOI, drug added at 24 h, lysis at 48 h (FIG. 7); for expression of E2F-1 and E1A: Y79 cells pre-exposed to VCN-01 (FIG. 13H)
Experimental: 2 million Y79 retinoblastoma cells were infected with 50 MOIs of VCN-01. […] Etoposide is topoisomerase 2 inhibitor.
In all experiments, 6-well culture plates containing 2×10^6 cells were used. […] The experiments were controlled by adding culture medium instead of the second treatment. […] The analyses were expanded to other chemotherapeutic agents including hydroxyurea ([…]), etoposide (2 μM), irinotecan (10 μM) or SN-38 (1 μM).
Near-infrared labeled secondary antibodies (Odyssey CLx, LI-COR Inc. Bad Homburg, Germany) were used for detection.

[2] = system: HSJD-NB-005 neuroblastoma; assay: Antitumor activity in neuroblastoma PDX HSJD-NB-005; assay type: in vivo, mouse; conditions: single treatment (FIG. 24D,F)
Experimental: PDX of neuroblastoma (pediatric solid tumor) were implanted subcutaneously into athymic nude mice. Tumor model was HSJD-NB-005. Upon engraftment (tumor volumes ranging 100-500 mm^3), treatments were started. The activity of topotecan vs. irinotecan in combination with VCN-01 was evaluated. The following groups of mice were included in the study, with an n of 6 tumors per group: • Group 1: no treatment • Group 2: topotecan i.p. at 0.6 mg/kg, Day 1-5 • Group 3: irinotecan i.p. at 10 mg/kg, Day 1-5 • Group 4: VCN-01 i.t at 3E9 vp/tumor, Day 1 • Group 5: VCN-01 i.t at 3E9 vp/tumor, Day 1 (morning)+topotecan i.p. at 0.6 mg/kg, Day 1-5 • Group 6: VCN-01 i.t at 3E9 vp/tumor, Day 1 (morning)+irinotecan i.p. at 10 mg/kg, Day 1-5
Antitumor activity in extracranial pediatric solid tumors. 5-10 mm^3 fresh fragments of Ewing sarcoma or neuroblastoma PDX were implanted in both flanks of mice. Upon s.c. engraftment (tumor volume 150-200 mm^3), mice received topotecan (0.6 mg/kg, i.p., days 1-5), VCN-01 (3×10^9 vp in 20 µL vehicle, intratumoral, day 1), or the combination. In two additional groups, an alternative topoisomerase 1 inhibitor, irinotecan (10 mg/kg, i.p., on days 1-5) we used in place of topotecan. Upon completion of treatments, tumor volumes were followed until endpoint (1500 mm^3), or until day 80.

[3] = system: Y79 tumors; assay type: in vivo, mouse; conditions: systemic drug after intratumoral VCN-01 3×10E^9 vp/tumor; 5 or 15 days (FIGS. 2A-B)
[4] = system: Y79 cells and primary retinoblastoma cultures; assay type: cell-based
[5] = system: retinoblastoma cells; assay type: cell-based
[6] = system: HSJD-RBVS-10 retinoblastoma cells; assay: cells; assay type: cell-based; conditions: Homo sapiens
[7] = system: Y79 retinoblastoma cells; assay: cells; assay type: cell-based
[8] = system: HSJD-RBT-5 retinoblastoma cells; assay: cells; assay type: cell-based; conditions: Homo sapiens
[9] = system: HSJD-RBT-7 retinoblastoma cells; assay: cells; assay type: cell-based; conditions: Homo sapiens
[10] = read-out: IC50, Melphalan single agent
[11] = read-out: IC50, Melphalan with VCN-01 (10 MOI)

SN-38
expression of VCN-01 proteins (E1a) [1]: increases expression of VCN-01 proteins | expression of E2F-1 and E1A [1]: increased the expression of E2F-1 and E1A similarly to topotecan

CCc1c2c(nc3ccc(OC(=O)N4CCC(N5CCCCC5)CC4)cc13)-c1cc3c(c(=O)n1C2)COC(=O)[C@]3(O)CC [irinotecan]
response of xenograft to single treatment [2]: highly resistant | expression of VCN-01 proteins (E1a) [1]: does not work in vitro

NC(=O)NO [hydroxyurea]
VCN-01 genome content in tumors [3]: the enhancement of VCN-01 replication in vivo appears to be specific to topotecan | transgene expression, virus first ([4]; cells pre-infected with AdTLRGDK (FIG. 18E, FIG. 19A)): increased transgene expression | viral transduction, drug first ([4]; drug exposure before viral infection (FIG. 18E)): did not enhance viral transduction | expression of E2F-1 and E1A [1]: did not modify the levels of these proteins

COc1cc([C@@H]2c3cc4c(cc3[C@@H](O[C@@H]3O[C@@H]5CO[C@@H](C)O[C@H]5[C@H](O)[C@H]3O)[C@H]3COC(=O)[C@H]23)OCO4)cc(OC)c1O [etoposide]
expression of VCN-01 proteins (E1a) [1]: does not induce the same effect | expression of E2F-1 and E1A [1]: did not modify the levels of these proteins

N[C@@H](Cc1ccc(N(CCCl)CCCl)cc1)C(=O)O [Melphalan, melphalan]
cell sensitivity to drug after VCN-01 infection [5]: decreased cell sensitivity | pIC50 [6, 10]: 6.62 | pIC50 [6, 11]: 5.69 | pIC50 [7, 10]: 5.49 | pIC50 [7, 11]: 5.23 | pIC50 [8, 10]: 6.32 | pIC50 [8, 11]: 6.20 | pIC50 [9, 10]: 5.85 | pIC50 [9, 11]: 5.07
